# Measured values from PubChem BioAssay AID588620 (NMMLSC, 2011).
# Calls of active or inactive are those of the source.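 Rule for the calls: active = fitted half-maximal concentration below 30 µM for cell fluorescence in pump-free yeast, so likely self-fluorescent; inactive = the rest.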
# Assay: concentration-dependent intrinsic compound fluorescence, S. cerevisiae AD/pABC3, flow cytometry, Cherry Pick1 hits, artefact control for antifungal efflux pump inhibitor project, dose response (AID 588620);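 note: red emission of unstained cells excited at 488 nm measured in PE-Texas Red channel; cell median fluorescence as percent of DMSO wells so 100% equals vehicle baseline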
# Details: S. cerevisiae AD/pABC3 compound autofluorescence, flow cytometry; at 33.1 µM (top of the series)
row,Structure (SMILES),"fluorescence response, % of control"
1,O=C1c2cc(Cl)ccc2OC2(CCNCC2)C12CC(c1ccc(Cl)cc1)=NO2 (stereo unspecified),106% (inactive)
2,Cc1cccc(C)c1-n1c(SCC(=O)N2CC(=O)Nc3ccccc32)nc2ccccc2c1=O,118% (inactive)
3,CC(CCc1ccccc1)NC(=O)c1ccc(NC(=O)c2cccc(Br)c2)cc1 (stereo unspecified),88.6% (inactive)
4,COc1ccc2sc(-c3ccccc3OC)c(-c3ccc(OCCN4CCCC4)cc3)c2c1,114% (inactive)
5,O=C(C1CCC1)N1CCc2cc(S(=O)(=O)Nc3ccc4c(c3)OCCO4)ccc21,116% (inactive)
6,COc1ccc(CN2C(=O)C(C)Nc3ncnc(N4CCN(c5ccccc5)CC4)c32)cc1 (stereo unspecified),106% (inactive)
7,O=C(NCCC1=CCCCC1)C1CCC(CNc2nc(=S)[nH]c3ccccc23)CC1 (stereo unspecified),108% (inactive)
8,Cc1ccc(CNC(=O)CCCn2nc(C)c3c(C)n(-c4ccccc4)nc3c2=O)cc1,93.6% (inactive)
9,O=C1C(Cl)=C(Nc2ccc3cn[nH]c3c2)C(=O)c2ccccc21,145% (inactive)
10,O=c1[nH]c(=S)[nH]c(O)c1/C=C1/C=c2ccccc2=N1,114% (inactive)
11,CCCCCCCCCCOC(=O)Cn1c(COc2cccc(C)c2)[n+](C)c2ccccc21,105% (inactive)
12,COc1ccc(-c2sc3cc4c(cc3c2-c2ccc(OCCN3CCCCC3)cc2)OCO4)cc1,91.7% (inactive)
13,O=C(c1ccc2c(c1)OCO2)N1CCC2(CC1)Oc1ccc(F)cc1C(=O)C21CC(c2ccccc2)=NO1 (stereo unspecified),139% (inactive)
14,CCOc1ccccc1-c1nc(C(N)=O)c2[nH]c(=O)n(-c3ccc(F)cc3)c2n1,136% (inactive)
15,O=C(NC(=S)Nc1ccc2[nH]c(=O)[nH]c2c1)c1cncc(Br)c1,102% (inactive)
16,COc1cc(/C=C2/CC/C(=C/c3ccc(O)c(OC)c3)C2=O)ccc1O,347% (inactive)
17,COc1ccc2nc(C)cc(Sc3nc4ccccc4s3)c2c1,100% (inactive)
18,O=C1C(Cc2ccccc2)Nc2ncnc(N3CCN(c4ccccc4)CC3)c2N1Cc1ccc(Br)cc1 (stereo unspecified),116% (inactive)
19,CCOc1cc2[nH]c(=S)n(CCC(=O)NCc3ccc(OC)cc3)c(=O)c2cc1OCC,93.1% (inactive)
20,COc1ccc(-c2sc3ccccc3c2-c2ccc(OCCN3CCOCC3)cc2)cc1,111% (inactive)
21,COc1ccc(CNC(=O)C(=O)NCC2OCCN2S(=O)(=O)c2ccc(OC)c(OC)c2)cc1 (stereo unspecified),99.3% (inactive)

row,Structure (SMILES),"fluorescence response, % of control"
1,Cc1ccc(-c2cc(C(=O)Nc3ccc(S(=O)(=O)Nc4onc(C)c4C)cc3)c3ccccc3n2)cc1,88.3% (inactive)
2,CC(C)OC(=O)c1ccc(COC(=O)c2cccc(-c3nnc(-c4ccccc4)o3)c2)cc1,118% (inactive)
3,CCOc1cccc(-c2nc(C(N)=O)c3[nH]c(=O)n(-c4cccc(Cl)c4)c3n2)c1O,102% (inactive)
4,COc1cccc(C(=O)NC2CC(C)(C)Cc3c2cnn3-c2cccc(F)c2)c1OC (stereo unspecified),121% (inactive)
5,COc1cccc(-c2sc3ccc(OC)cc3c2-c2ccc(OCCN(C)C)cc2)c1,126% (inactive)
6,C[C@@H]1CN(C(=O)c2cc(COc3cccc(C(F)(F)F)c3)on2)C[C@H](C)O1,97.1% (inactive)
7,COc1ccc2sc(-c3ccccc3OC)c(-c3ccc(OCCN(C)C)cc3)c2c1,118% (inactive)
8,COC(=O)c1ccc(S(=O)(=O)NCc2ccc(OC)cc2)n1C,96.9% (inactive)
9,COc1ccc(C2c3ccc4ccccc4c3Oc3ncn(CCN4CCOCC4)c(=N)c32)cc1 (stereo unspecified),135% (inactive)
10,O=S(=O)(Nc1cc(Sc2ncn[nH]2)c(O)c2ccccc12)c1ccccc1,140% (inactive)
11,COc1ccccc1-c1sc2ccccc2c1-c1ccc(OCCN2CCCCC2)cc1,102% (inactive)
12,CCOc1ccc(S(=O)(=O)N(C(=O)c2ccco2)c2cc3sc(=O)oc3c3ccccc23)cc1,92.2% (inactive)
13,COc1ccc(S(=O)(=O)N(C)C[C@H]2Oc3c(NC(=O)NC4CCCCC4)cccc3C(=O)N([C@H](C)CO)C[C@@H]2C)cc1,119% (inactive)
14,Cc1sc2ncnc(SC(C)C(=O)N3c4ccccc4Sc4ccccc43)c2c1C (stereo unspecified),126% (inactive)
15,c1ccc(-c2ccc3c(c2)c2c4n3CCN=C4CCC2)cc1,138% (inactive)
16,COCCCn1c(=S)[nH]c2ccc(N3CCOCC3)cc2c1=O,105% (inactive)
17,CC1(C)Cc2c(cnn2-c2ccc(F)cc2)C(NC(=O)c2cnccn2)C1 (stereo unspecified),102% (inactive)
18,COc1ccc(S(=O)(=O)N2CCCCC2)cc1NC(=O)c1ccc(CS(C)(=O)=O)cc1,99.1% (inactive)
19,Cc1nnc(N/N=C/c2cc([N+](=O)[O-])c(N3CCC(C)CC3)cc2N2CCC(C)CC2)n1N,97.1% (inactive)
20,CCCCOc1ccc(C(=O)NCC(=O)OCC(=O)c2c(N)n(C)c(=O)n(C)c2=O)cc1,89% (inactive)
21,O=C(/C=C/c1cccs1)N1CCC2(CC1)Oc1ccc(F)cc1C(=O)C21CC(c2ccccc2)=NO1 (stereo unspecified),96.4% (inactive)

row,Structure (SMILES),"fluorescence response, % of control"
1,COCC1CCN(C(=O)c2cc(COc3ccc(OC)c4ccccc34)on2)C1 (stereo unspecified),82.6% (inactive)
2,O=C(Nc1ccnc(-c2cccnc2)n1)c1cccc(Cl)c1Cl,104% (inactive)
3,COc1ccc(-c2nc3ccccc3c(=O)n2CCOc2ccc(C)cc2C)cc1,113% (inactive)
4,CCCCOc1ccc(NC2=NC3(CCCC3)N=C(N)N2)cc1,73.8% (inactive)
5,C[C@@]12C(=O)Nc3ccc(Cl)cc3C(=O)N1[C@H]1c3cc(Cl)ccc3OC[C@@H]1[C@@H]2c1ccccc1,103% (inactive)
6,Cc1ccc(-n2c(=O)[nH]c3c(C(N)=O)nc(-c4ccc(C)o4)nc32)cc1,99.1% (inactive)
7,COc1ccc(/C=C2\SC(=O)N(CCC(=O)Nc3ccccc3)C2=O)cc1OC,99.1% (inactive)
8,O=C(c1cc(COc2cccc(C(F)(F)F)c2)on1)N1CCC(c2ccncc2)CC1,109% (inactive)
9,Nc1cc2c(cc1C(=O)c1cccc(Br)c1)OCCO2,92.7% (inactive)
10,O=C(CSc1nnc(-c2cccnc2)n1Cc1ccco1)c1ccc(Cl)c(Cl)c1,81.2% (inactive)
11,Cc1ccc(C)c(C(=O)COC(=O)c2ccc(C)c(S(=O)(=O)N3CCOCC3)c2)c1,93.5% (inactive)
12,Cc1ccc(CCNC(=O)CCCn2nc(C)c3c(C)n(-c4ccc(C)cc4)nc3c2=O)cc1,101% (inactive)
13,CCOC(=O)c1ccc(-c2cc(C)no2)[nH]1,99.8% (inactive)
14,CS(=O)(=O)Nc1ccc(C(=O)Nc2ccc3c(c2)OCCO3)cc1,95.7% (inactive)
15,CCOC(=O)c1cccc(NC(=O)c2ccc(NC(=O)c3ccco3)cc2)c1,85.8% (inactive)
16,Cc1ccc(Cl)cc1N1CCN(c2cccc[n+]2C)CC1,95.1% (inactive)
17,CCCCCCCCCCOC(=O)Cn1c(COc2ccc(Cl)cc2)[n+](C)c2ccccc21,106% (inactive)
18,COc1ccc(Cn2c(-c3ccccc3)nc3c(c(=O)c4ccccc4n3C)c2=O)cc1,102% (inactive)
19,O=C(NCC1CCCO1)c1ccc(Br)c(S(=O)(=O)N2CCOCC2)c1 (stereo unspecified),96.3% (inactive)
20,COc1ccc(/C=c2\s/c(=C/C(=O)c3ccc(C)cc3)[nH]c2=O)c(OC)c1,98.7% (inactive)
21,O=C(Oc1ccc2c(=O)c(Oc3ccc4ccccc4c3)coc2c1)c1cncc(Br)c1,90.5% (inactive)

row,Structure (SMILES),"fluorescence response, % of control"
1,Cc1ccc(CN(Cc2cccnc2)C(=O)CN2C(=O)COc3ccccc32)o1,96.1% (inactive)
2,Cc1ccc(Cn2nnc3c(=O)[nH]c(C4CCN(S(=O)(=O)c5ccc(C)cc5)CC4)nc32)cc1,91.7% (inactive)
3,Cc1noc(C)c1COc1ccccc1C(=O)N1CCN(c2cccc(C(F)(F)F)c2)CC1,88.1% (inactive)
4,COCCOC(=O)c1c(C)oc2ccc(NS(=O)(=O)c3ccc(F)cc3)cc12,90.9% (inactive)
5,COC(=O)c1ccc(CSc2nnc3c(n2)[nH]c2ccccc23)cc1,139% (inactive)
6,Cc1ccc(C)c(Cn2nnc3c(=O)[nH]c(C4CCN(S(=O)(=O)c5ccc(S(=O)(=O)N(C)C)cc5)CC4)nc32)c1,119% (inactive)
7,N#CCCN1CCN(C(=S)c2ccc(-c3ccc(Cl)c(Cl)c3)o2)CC1,75.6% (inactive)
8,CC1(C)Cc2c(sc(NC(=O)COc3ccc(Cl)cc3Cl)c2C(N)=O)C(C)(C)N1,86% (inactive)
9,O=C(COC(=O)c1ccc(S(=O)(=O)N2CCCCC2)cc1)NCc1ccco1,91.7% (inactive)
10,O=C(Cc1c2ccccc2nc2ccccc12)c1ccccc1,98.7% (inactive)
11,COc1ccc(-n2ncc3c2CC(C)(C)CC3NC(=O)c2cn[nH]c2)cc1 (stereo unspecified),110% (inactive)
12,Cc1cc(C(=O)NC2CC(C)(C)Cc3c2cnn3-c2cccc(F)c2)n(C)n1 (stereo unspecified),82.7% (inactive)
13,CN(C)CCN(C(=O)c1ccc(S(=O)(=O)N2CCc3ccccc32)cc1)c1nc2ccc(F)cc2s1,196% (inactive)
14,O=C(NC1CCCCC1)c1cc2ccccc2cc1O,78.8% (inactive)
15,O=C(O)CCCN1C(=O)/C(=C\c2ccc(-c3nc4ccccc4s3)o2)SC1=S,288% (inactive)
16,COc1ccc(-c2[nH]c(-c3ccc4c(c3)OCO4)nc2-c2ccccc2)cc1,80.8% (inactive)
17,COC(=O)C1=C(C)N=c2s/c(=C/c3ccoc3)c(=O)n2C1c1ccccc1 (stereo unspecified),821% (inactive)
18,NC(=O)c1nc(-c2cccs2)nc2c1[nH]c(=O)n2-c1ccc(F)cc1,93.5% (inactive)
